# Data as given in patent US12630501B2, “Anti-fibrotic compounds and use thereof” (HADASIT MEDICAL RESEARCH SERVICES AND DEVELOPMENT LTD., priority 2019, dated 2026).
# How the values were obtained:
# [1] = test system: IPF-lung myofibroblasts; assay: Anti-Fas mAb-mediated cell death of IPF-lung myofibroblasts (trypan blue, caspase-3 cleavage); format: cell-based, human
# Protocol: Cell death and apoptosis Apoptosis was assessed with Annexin V affinity labeling, trypan blue exclusion, and caspase-3 cleavage in WB as described in Golan-Gerstl et al., Am. J. Respir. Cell Mol. Biol. 36: 270-275, 2007; Wallach-Dayan et al., PNAS USA 104: 20460-20465, 2007; and Wallach-Dayan et al., Am. J. Physiol. Lung Cell Mol. Physiol. 290: L790-L796, 2006.
# Caspase-8 activation further targets effector caspase-3 and caspase-7, a parallel […] pathway, caspases 6 and 9, MAPKs, and Bim phosphorylations with binding cascades to Bax, Apaf-1, and caspase-9, allowing Bax-mediated cell death to be detected as well. Concomitantly, inhibitors of these processes, including FLIP, show negative interaction with FADD and with the inhibitors of apoptotic proteins (IAPs). […] In addition, CMH increased CH-11 anti-human Fas mAb-mediated IPF-myofibroblast cell death (24 h, 10 μM) above that produced by treatment with the vehicle alone (4% DMSO), as shown by microscope images (FIG. 5A) and trypan blue exclusion (FIG. 5A, quantification in inserts, and FIG. 5B, graphical representation), with 0.9-1×10^5 viable cells in control compared to only 0.3×10^5 cells following CMH. In fact, CMH-treated cells were 10 times more likely to undergo Fas-induced apoptosis (2.8 compared to 0.3), as determined by the OD of cleaved to uncleaved caspase-3 ratios (FIG. 5C). CMH therefore amplifies Fas signaling cascades above those induced by Fas alone. Thus, multiple intracellular anti-apoptotic signaling pathways mediated by SIRT1 and Ku70 were altered by CMH in vitro, which further enhanced Fas-apoptosis cascades.
# [2] = target: HDAC2 (Homo sapiens, UniProt Q92769); details: prostate cancer cells; cited from earlier work
# [3] = target: HDAC3 (Homo sapiens, UniProt O15379); details: prostate cancer cells; cited from earlier work
# [4] = target: T1, HDAC6 (Homo sapiens, UniProt Q9UBN7); details: prostate cancer cells; cited from earlier work
# T1 sequence (Q9UBN7 1-1215): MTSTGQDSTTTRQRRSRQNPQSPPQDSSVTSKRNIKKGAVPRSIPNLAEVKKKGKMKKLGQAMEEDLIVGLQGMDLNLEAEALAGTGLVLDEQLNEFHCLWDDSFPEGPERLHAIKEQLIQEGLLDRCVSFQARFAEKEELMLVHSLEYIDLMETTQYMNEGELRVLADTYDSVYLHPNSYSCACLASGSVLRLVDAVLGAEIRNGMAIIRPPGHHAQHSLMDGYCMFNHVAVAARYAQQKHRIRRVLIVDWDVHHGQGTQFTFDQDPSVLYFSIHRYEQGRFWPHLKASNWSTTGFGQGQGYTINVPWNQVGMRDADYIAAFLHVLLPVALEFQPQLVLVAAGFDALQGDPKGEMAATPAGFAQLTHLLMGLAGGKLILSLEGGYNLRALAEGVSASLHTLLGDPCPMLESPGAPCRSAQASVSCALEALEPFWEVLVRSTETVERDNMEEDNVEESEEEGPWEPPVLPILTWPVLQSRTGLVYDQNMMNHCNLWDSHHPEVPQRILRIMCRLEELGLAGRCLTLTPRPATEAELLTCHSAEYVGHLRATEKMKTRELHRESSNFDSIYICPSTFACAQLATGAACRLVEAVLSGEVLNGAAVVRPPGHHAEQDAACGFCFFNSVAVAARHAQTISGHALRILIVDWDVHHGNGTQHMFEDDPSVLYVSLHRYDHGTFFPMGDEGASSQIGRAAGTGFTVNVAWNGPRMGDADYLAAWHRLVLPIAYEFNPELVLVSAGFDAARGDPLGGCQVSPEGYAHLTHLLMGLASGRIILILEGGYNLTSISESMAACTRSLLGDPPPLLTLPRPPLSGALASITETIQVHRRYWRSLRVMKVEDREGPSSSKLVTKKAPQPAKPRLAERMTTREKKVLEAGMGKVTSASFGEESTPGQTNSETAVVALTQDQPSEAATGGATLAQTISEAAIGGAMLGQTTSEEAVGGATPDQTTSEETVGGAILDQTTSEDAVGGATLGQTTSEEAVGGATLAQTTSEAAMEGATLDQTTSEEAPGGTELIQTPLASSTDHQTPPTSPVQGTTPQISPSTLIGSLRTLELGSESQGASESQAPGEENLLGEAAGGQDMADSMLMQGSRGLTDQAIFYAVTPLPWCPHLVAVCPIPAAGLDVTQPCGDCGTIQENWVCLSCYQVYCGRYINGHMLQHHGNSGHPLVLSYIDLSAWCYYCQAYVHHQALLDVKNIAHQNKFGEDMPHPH
# [5] = target: HDAC9 (Homo sapiens, UniProt Q9UKV0); details: prostate cancer cells; cited from earlier work
# HDAC9, sequence (Q9UKV0 whole entry, species assumed): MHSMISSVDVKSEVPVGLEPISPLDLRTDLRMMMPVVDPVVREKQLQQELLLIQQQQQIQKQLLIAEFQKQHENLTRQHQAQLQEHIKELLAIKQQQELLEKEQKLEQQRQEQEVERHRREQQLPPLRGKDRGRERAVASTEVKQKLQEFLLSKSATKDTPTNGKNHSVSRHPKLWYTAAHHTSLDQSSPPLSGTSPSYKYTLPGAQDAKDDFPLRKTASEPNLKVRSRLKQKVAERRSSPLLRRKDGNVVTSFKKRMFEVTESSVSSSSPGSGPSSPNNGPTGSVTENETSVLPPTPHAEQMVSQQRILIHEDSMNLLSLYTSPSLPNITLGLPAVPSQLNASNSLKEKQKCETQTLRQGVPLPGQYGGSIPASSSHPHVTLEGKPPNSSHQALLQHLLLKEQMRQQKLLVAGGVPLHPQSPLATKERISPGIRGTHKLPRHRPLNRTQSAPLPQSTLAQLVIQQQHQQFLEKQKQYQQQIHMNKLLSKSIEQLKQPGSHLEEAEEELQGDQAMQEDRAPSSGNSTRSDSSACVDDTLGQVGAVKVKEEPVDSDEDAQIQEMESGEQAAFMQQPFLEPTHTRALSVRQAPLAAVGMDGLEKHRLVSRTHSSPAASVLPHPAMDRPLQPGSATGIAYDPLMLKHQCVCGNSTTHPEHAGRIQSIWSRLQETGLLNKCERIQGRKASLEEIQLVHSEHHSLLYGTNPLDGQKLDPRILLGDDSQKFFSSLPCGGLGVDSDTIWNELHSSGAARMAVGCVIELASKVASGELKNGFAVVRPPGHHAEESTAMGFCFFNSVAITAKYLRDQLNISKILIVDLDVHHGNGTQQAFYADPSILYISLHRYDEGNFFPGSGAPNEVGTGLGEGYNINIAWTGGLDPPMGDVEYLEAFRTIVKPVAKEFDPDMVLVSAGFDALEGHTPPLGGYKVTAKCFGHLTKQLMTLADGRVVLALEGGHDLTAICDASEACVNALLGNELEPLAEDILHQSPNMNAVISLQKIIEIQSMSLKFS
# HDAC2, sequence (Q92769 whole entry, species assumed): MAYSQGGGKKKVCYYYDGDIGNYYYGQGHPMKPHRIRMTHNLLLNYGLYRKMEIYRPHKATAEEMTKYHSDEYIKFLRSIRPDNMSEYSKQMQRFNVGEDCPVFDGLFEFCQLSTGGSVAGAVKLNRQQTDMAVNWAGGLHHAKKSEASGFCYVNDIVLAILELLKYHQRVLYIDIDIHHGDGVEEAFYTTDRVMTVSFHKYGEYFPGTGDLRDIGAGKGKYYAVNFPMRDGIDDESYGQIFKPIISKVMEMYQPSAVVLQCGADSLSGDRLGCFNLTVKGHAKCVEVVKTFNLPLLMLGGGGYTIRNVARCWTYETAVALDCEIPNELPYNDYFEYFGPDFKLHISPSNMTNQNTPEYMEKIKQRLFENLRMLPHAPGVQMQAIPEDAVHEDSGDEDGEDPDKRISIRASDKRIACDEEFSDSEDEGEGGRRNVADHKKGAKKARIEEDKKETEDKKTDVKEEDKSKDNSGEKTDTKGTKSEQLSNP
# HDAC3, sequence (O15379 whole entry, species assumed): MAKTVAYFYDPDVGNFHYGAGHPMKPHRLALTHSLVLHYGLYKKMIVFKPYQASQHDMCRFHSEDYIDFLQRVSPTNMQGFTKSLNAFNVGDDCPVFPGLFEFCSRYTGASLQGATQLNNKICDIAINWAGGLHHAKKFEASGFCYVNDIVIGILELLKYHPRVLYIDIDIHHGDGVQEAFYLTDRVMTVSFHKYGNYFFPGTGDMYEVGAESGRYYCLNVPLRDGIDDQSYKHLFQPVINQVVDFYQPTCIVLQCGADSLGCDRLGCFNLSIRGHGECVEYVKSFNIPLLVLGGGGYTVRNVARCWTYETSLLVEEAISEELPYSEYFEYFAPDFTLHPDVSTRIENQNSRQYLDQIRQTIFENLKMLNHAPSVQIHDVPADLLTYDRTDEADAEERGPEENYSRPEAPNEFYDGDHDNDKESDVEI
# HDAC3, sequence (Q9Y618 395-489 partner limits assumed, species assumed): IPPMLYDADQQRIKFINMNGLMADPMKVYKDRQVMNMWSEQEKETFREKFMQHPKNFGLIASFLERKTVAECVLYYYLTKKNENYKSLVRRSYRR
smiles,measurement,setting,value
"Cc1cc(Cl)ccc1OCCCC(=O)NO [CMH, 4-(4-chloro-2-methylphenoxy)-N-hydroxybutanamide]","Viable cells, trypan blue exclusion","[1]; CMH plus CH-11 anti-human Fas mAb (24 h, 10 μM), control 0.9-1×10^5",0.3×10^5 cells
same,OD of cleaved to uncleaved caspase-3 ratio,"[1]; CMH plus anti-Fas mAb, vehicle 0.3",2.8
same,Likelihood to undergo Fas-induced apoptosis vs. vehicle,[1]; from cleaved to uncleaved caspase-3 ratios,10 times
same,Inhibition of HDAC2,[2],not inhibited
same,Inhibition of HDAC3,[3],Selective inhibition
same,Inhibition of HDAC6,[4],Selective inhibition
same,Inhibition of HDAC9,[5],not inhibited
